The data set in a line: recombinant barcode read abundance after kanamycin selection (control-corrected) (log10(CPM+1)); higher = more efficient recombination; sequences stand for … in AGTGCAGAGAAAATCGGCCAGTTTTCTCTGCCTGCAGTCCGCATGCCGT…AGATTTATGCAGCGGACTGCCTTTCTCCCAAAGTGATAAACCGGACAGTATCATGGACCGGTTTTCCCGGTAATCCGTATTTGCAAGGTTGGTTTCACT; site = the 11-nt target. In a few lines:
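For this pooled screen, each oligo contained a promoter, a target, a barcode and the J23119-driven first 104 bases of the bridge RNA. Gibson cloning placed it into a vector supplying the remaining 73 bp and a T7-inducible recombinase, and the pool was co-electroporated into E. coli with a donor plasmid. Recombination efficiency is derived from barcode counts per million at recombinant junctions after averaging and control correction, and is expressed on a log scale as log10(CPM+1), with selection on chloramphenicol/ampicillin/kanamycin plus 0.1 mM IPTG against a chloramphenicol/ampicillin LB agar control.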
For “TCTCTCGCTTGGGTTCTAACCTGTTGCCT (site CAGAATCCTCC)”, the “recombinant barcode read abundance (log10)” value was 0.108.

On to “TCTCTCGCTTGGGTTCTAACCTGTTGCCT (site TCTCTCGCTAG)”, for which the “recombinant barcode read abundance (log10)” value worked out at 0.47.

As to “TCTGATCCTTGGGTTCTAACCTGTTGCCT (site TCTCACCCTAG)”, the “recombinant barcode read abundance (log10)” value came to 0.0615. In the case of “TCTGATCCTTGGGTTCTAACCTGTTGCCT (site TCTGATCCTAG)”, the “recombinant barcode read abundance (log10)” value is 0.7. In the case of “TCTGGGCCTTGGGTTCTAACCTGTTGCTA (site TCTGGGCCTAA)” it was 0.42; in that of “TCTGGGCCTTGGGTTCTAACCTGTTGCTA (site TCTGGGCCTTA)”, 0.364.

For the sequence “TCTTAGACTTGGGTTCTAACCTGTTGCGA (site CAAACCTCTGT)”, the “recombinant barcode read abundance (log10)” value was 0.0411. As for “TCTTAGACTTGGGTTCTAACCTGTTGCGA (site TCTTAGACTTC)”, the figure is 0.638; as for “TCTTAGACTTGGGTTCTAACCTGTTGCGG (site ACTTAGACTCC)”, 0.172; as for “TCTTAGACTTGGGTTCTAACCTGTTGCGG (site TCTTAGACTCC)”, 1.47. In the case of “TCTTATTCTTGGGTTCTAACCTGTTGCGT (site TCTAATTCTAC)”, the “recombinant barcode read abundance (log10)” value worked out at 0.0715. In the case of “TCTTATTCTTGGGTTCTAACCTGTTGCGT (site TCTCATTCTAC)” it was 0.0847. In the case of “TCTTATTCTTGGGTTCTAACCTGTTGCGT (site TCTGATTCTAC)” it was 0.0368; in that of “TCTTATTCTTGGGTTCTAACCTGTTGCGT (site TCTTATTCTAC)”, 0.258; in that of “TCTTGGACTTGGGTTCTAACCTGTTGCAC (site AGGGACCCTAG)”, 0.0242. With “TCTTGGACTTGGGTTCTAACCTGTTGCAC (site TCTTGGACTGT)”, the “recombinant barcode read abundance (log10)” value is 0.104. Regarding “TCTTGGACTTGGGTTCTAACCTGTTGCTC (site TCTTGGACTAA)”, the “recombinant barcode read abundance (log10)” value amounted to 0.0489. In the case of “TCTTGGACTTGGGTTCTAACCTGTTGCTC (site TCTTGGACTCA)” it was 0.153. In the case of “TCTTGGACTTGGGTTCTAACCTGTTGCTC (site TCTTGGACTGA)” it was 0.165; in that of “TCTTGGACTTGGGTTCTAACCTGTTGCTC (site TCTTGGACTTA)”, 0.0183. In the case of “TCTTGTCCTTGGGTTCTAACCTGTTGCGG (site TCTTGTCCTAC)” it was 0.0164. Consider “TCTTGTCCTTGGGTTCTAACCTGTTGCGG (site TCTTGTCCTCC)”, for which the “recombinant barcode read abundance (log10)” value amounted to 0.526. In the case of “TCTTGTCCTTGGGTTCTAACCTGTTGCGG (site TCTTGTCCTGC)” it was 0.104; in that of “TCTTGTCCTTGGGTTCTAACCTGTTGCGG (site TCTTGTCCTTC)”, 0.0135.

In the case of “TCTTTAGCTTGGGTTCTAACCTGTTGCAG (site CTAAGGTCTTA)”, the “recombinant barcode read abundance (log10)” value is 0.24.

Turning to “TCTTTAGCTTGGGTTCTAACCTGTTGCAG (site TCTTTAGCTCT)”, the “recombinant barcode read abundance (log10)” value is 0.236.

In the case of “TGAAACTCTTGGGTTCTAACCTGTTGCGG (site GTCGGTCCTGT)”, the “recombinant barcode read abundance (log10)” value amounted to 0.27. In the case of “TGAAACTCTTGGGTTCTAACCTGTTGCGG (site TGAAACTCTCC)” it was 1.16; in that of “TGAAAGACTTGGGTTCTAACCTGTTGCCG (site GACGGACCTAT)”, 0.475. As for “TGAAAGACTTGGGTTCTAACCTGTTGCCG (site TGAAAGACTCG)”, the figure is 0.762; as for “TGAAGGTCTTGGGTTCTAACCTGTTGCCT (site TGAAAGTCTAG)”, 0.213; as for “TGAAGGTCTTGGGTTCTAACCTGTTGCCT (site TGAACGTCTAG)”, 0.175.
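Also: IS621 recombinase and bridge RNA in Escherichia coli cells.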
